The results in this text go back to patent publication US9549921B2, “Heterocyclic compounds and methods of use thereof for the treatment of hepatitis C” (priority 2014, dated 2017).

Like-named read-outs stand apart in the source and are kept apart here.

Test [1] relates to HCV replicon genotype 1b. Kind of test: HCV replicon assay, genotype 1b (cell ELISA for NS3/4A). Type of test: cell-based, hepatitis C virus. Summed up:
(§1)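 Readout is NS3/4A protein level from an antibody-based cell ELISA, serving as an indirect measure of replicon RNA; IC50 fitted with a four-parameter function relative to DMSO control. Replicon cells, kept under G418 beforehand, were plated with serial compound dilutions minus G418 for 96 hours.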
A general note: A replicon is a self-replicating genome or part of one, used to study replication in cells.

The test system of test [2] is HCV replicon genotype 1a. The test is described as follows: HCV replicon assay, genotype 1a (cell ELISA for NS3/4A). Type of test: cell-based, hepatitis C virus. Summed up:
as §1

Where [3] appears, read: Hepatitis C virus, 96 h, read-out: 1b IC50 (nM), HCV genotype 1b replicon cells, 96 hours incubation, NS3/4A ELISA readout, % of DMSO control.
Setting [4] is: Hepatitis C virus, 96 h, read-out: 1a IC50 (nM), HCV genotype 1a replicon cells, 96 hours incubation, NS3/4A ELISA readout, % of DMSO control.
Setting [5] is: read-out: 1b IC50, HCV genotype 1b replicon cells, 96 hours incubation, NS3/4A ELISA readout, % of DMSO control.
Where [6] appears, read: read-out: 1a IC50, HCV genotype 1a replicon cells, 96 hours incubation, NS3/4A ELISA readout, % of DMSO control.

`CNC(=O)c1c(-c2ccc(F)cc2)oc2cc(N(C)S(C)(=O)=O)c([C@@H]3CCCN(S(=O)(=O)CCc4ccccc4)C3)cc12` [Example 124, 2-(4-fluorophenyl)-N-methyl-6-[methyl(methylsulfonyl)amino]-5-{(3S)-1-[(2-phenylethyl)sulfonyl]piperidin-3-yl}-1-benzofuran-3-carboxamide]: the IC50 amounted to 72.9 nM in test [1] (setting [3]) and 182 nM in test [2] (setting [4]).
Regarding `CNC(=O)c1c(-c2ccc(F)cc2)oc2cc(N(C)S(C)(=O)=O)c([C@@H]3CCCN(c4nc5ccccc5[nH]4)C3)cc12` (single isomer, unassigned) [Example 46, 5-(1-(1H-benzo[d]imidazol-2-yl)piperidin-3-yl)-2-(4-fluorophenyl)-N-methyl-6-(N-methylmethylsulfonamido)benzofuran-3-carboxamide], the IC50 in test [1] (setting [5]) was found to be 9.47 nM; in test [2] (setting [6]), 11.9 nM.
Regarding `CNC(=O)c1c(-c2ccc(F)cc2)oc2cc(N(C)S(C)(=O)=O)c([C@@H]3CCCN(C(=O)[C@H](N)c4ccccc4F)C3)cc12` (single isomer, unassigned) [Example 29], the IC50 was found to be 148 nM in test [1] (setting [3]) and 83.1 nM in test [2] (setting [4]).
In the same order, the values of `CNC(=O)c1c(-c2ccc(F)cc2)oc2cc(N(C)S(C)(=O)=O)c([C@@H]3CCCN(S(=O)(=O)c4c(Cl)nc5sccn45)C3)cc12` [Example 118, 5-{(3S)-1-[(6-chloroimidazo[2,1-b][1,3]thiazol-5-yl)sulfonyl]piperidin-3-yl}-2-(4-fluorophenyl)-N-methyl-6-[methyl(methylsulfonyl)amino]-1-benzofuran-3-carboxamide] are 8.36 nM and 41 nM.
On to `CNC(=O)c1c(-c2ccc(F)cc2)oc2cc(N(C)S(C)(=O)=O)c([C@H]3CCCN(S(=O)(=O)c4c(Cl)nc5sccn45)C3)cc12` [Example 133, 5-{(3R)-1-[(6-chloroimidazo[2,1-b][1,3]thiazol-5-yl)sulfonyl]piperidin-3-yl}-2-(4-fluorophenyl)-N-methyl-6-[methyl(methylsulfonyl)amino]-1-benzofuran-3-carboxamide], for which the IC50 in test [1] (setting [3]) came to 74.7 nM; in test [2] (setting [4]) it was 106 nM.
In the same order, the values of `CNC(=O)c1c(-c2ccc(F)cc2)oc2cc(N(C)S(C)(=O)=O)c([C@@H]3CCCN(C(=O)c4oc5ccc(F)cc5c4C)C3)cc12` [Example 62, 5-{1-[(5-fluoro-3-methyl-1-benzofuran-2-yl)carbonyl]piperidin-3-yl}-2-(4-fluorophenyl)-N-methyl-6-[methyl(methylsulfonyl)amino]-1-benzofuran-3-carboxamide] are 41.2 nM and 192 nM.
In the case of `CNC(=O)c1c(-c2ccc(F)cc2)oc2cc(N(C)S(C)(=O)=O)c([C@@H]3CCCN(C(=O)c4cc5c(F)cccc5n4C)C3)cc12` (single isomer, unassigned) [Example 25, 5-(1-(4-fluoro-1-methyl-1H-indole-2-carbonyl)piperidin-3-yl)-2-(4-fluorophenyl)-N-methyl-6-(N-methylmethylsulfonamido)benzofuran-3-carboxamide], the IC50 in test [1] (setting [5]) was 5.26 nM; in test [2] (setting [4]) it was 16.4 nM.
Consider `CNC(=O)c1c(-c2ccc(F)cc2)oc2cc(N(C)S(C)(=O)=O)c([C@@H]3CCCN(C(=O)Cc4ccc(F)cc4)C3)cc12` (single isomer, unassigned) [Example 17, 2-(4-fluorophenyl)-5-(1-(2-(4-fluorophenyl)acetyl)piperidin-3-yl)-N-methyl-6-(N-methylmethylsulfonamido)benzofuran-3-carboxamide], for which the figures for the IC50 in test [1] (setting [3]) and in test [2] (setting [4]) were 58.2 nM and 138 nM, respectively.
In the same order, the values of `CNC(=O)c1c(-c2ccc(F)cc2)oc2cc(N(C)S(C)(=O)=O)c([C@@H]3CCCN(S(=O)(=O)c4ccccc4C)C3)cc12` [Example 111, 2-(4-fluorophenyl)-N-methyl-6-[methyl(methylsulfonyl)amino]-5-{(3S)-1-[(2-methylphenyl)sulfonyl]piperidin-3-yl}-1-benzofuran-3-carboxamide] are 17.2 nM and 68.1 nM.
In the same order, the values of `CNC(=O)c1c(-c2ccc(F)cc2)oc2cc(N(C)S(C)(=O)=O)c([C@@H]3CCCN(C(=O)c4cc5ccccc5n4C)C3)cc12` [Example 67, 2-(4-fluorophenyl)-N-methyl-5-{1-[(1-methyl-1H-indol-2-yl)carbonyl]piperidin-3-yl}-6-[methyl(methylsulfonyl)amino]-1-benzofuran-3-carboxamide] are 87.4 nM and 156 nM.
The matching figures for `CNC(=O)c1c(-c2ccc(F)cc2)oc2cc(N(C)S(C)(=O)=O)c([C@@H]3CCCN(S(=O)(=O)c4ccccc4)C3)cc12` [Example 117, 2-(4-fluorophenyl)-N-methyl-6-[methyl(methylsulfonyl)amino]-5-[(3S)-1-(phenylsulfonyl)piperidin-3-yl]-1-benzofuran-3-carboxamide]: 9.37 nM and 32.3 nM.
As for `CNC(=O)c1c(-c2ccc(F)cc2)oc2cc(N(C)S(C)(=O)=O)c([C@@H]3CCCN(c4nc5c(F)cccc5[nH]4)C3)cc12` (single isomer, unassigned) [Example 56, 5-(1-(4-fluoro-1H-benzo[d]imidazol-2-yl)piperidin-3-yl)-2-(4-fluorophenyl)-N-methyl-6-(N-methylmethylsulfonamido)benzofuran-3-carboxamide], the IC50 in test [1] (setting [5]) is 23.9 nM; in test [2] (setting [6]), 53.7 nM.
Turning to `CNC(=O)c1c(-c2ccc(F)cc2)oc2cc(N(C)S(C)(=O)=O)c([C@@H]3CCCN(C(=O)C4C5COCC54)C3)cc12` (stereo in doubt) [Example 59, 2-(4-fluorophenyl)-N-methyl-6-[methyl(methylsulfonyl)amino]-5-[1-(3-oxabicyclo[3.1.0]hex-6-ylcarbonyl)piperidin-3-yl]-1-benzofuran-3-carboxamide], the IC50 was 120 nM in test [1] (setting [3]) and 308 nM in test [2] (setting [4]).
As for `CNC(=O)c1c(-c2ccc(F)cc2)oc2cc(N(C)S(C)(=O)=O)c([C@@H]3CCCN(C(=O)c4nc5ccccc5n4C)C3)cc12` (single isomer, unassigned) [Example 24, 2-(4-fluorophenyl)-N-methyl-5-(1-(1-methyl-1H-benzo[d]imidazole-2-carbonyl)piperidin-3-yl)-6-(N-methylmethylsulfonamido)benzofuran-3-carboxamide], the IC50 in test [1] (setting [5]) is 40.5 nM; in test [2] (setting [6]) it was 32.7 nM.
As for `CNC(=O)c1c(-c2ccc(F)cc2)oc2cc(N(C)S(C)(=O)=O)c([C@@H]3CCCN(c4nc5c(F)cccc5o4)C3)cc12` (single isomer, unassigned) [Example 50, 5-(1-(4-fluorobenzo[d]oxazol-2-yl)piperidin-3-yl)-2-(4-fluorophenyl)-N-methyl-6-(N-methylmethylsulfonamido)benzofuran-3-carboxamide], the IC50 in test [1] (setting [5]) was 20.1 nM; in test [2] (setting [6]), 81.7 nM.
For `CNC(=O)c1c(-c2ccc(F)cc2)oc2cc(N(C)S(C)(=O)=O)c([C@H]3CCCN(S(=O)(=O)c4cc5cccc(F)c5[nH]4)C3)cc12` [Example 3, (R)-5-(1-((7-fluoro-1H-indol-2-yl)sulfonyl)piperidin-3-yl)-2-(4-fluorophenyl)-N-methyl-6-(N-methylmethylsulfonamido)benzofuran-3-carboxamide], the IC50 worked out at 109 nM in test [1] (setting [3]) and 148 nM in test [2] (setting [4]).
On to `CNC(=O)c1c(-c2ccc(F)cc2)oc2cc(N(C)S(C)(=O)=O)c([C@@H]3CCCN(c4nc5ccccc5o4)C3)cc12` (single isomer, unassigned) [Example 47, 5-(1-(benzo[d]oxazol-2-yl)piperidin-3-yl)-2-(4-fluorophenyl)-N-methyl-6-(N-methylmethylsulfonamido)benzofuran-3-carboxamide], for which the IC50 in test [1] (setting [5]) was 5.37 nM; in test [2] (setting [6]), 8.37 nM.
With `CNC(=O)c1c(-c2ccc(F)cc2)oc2cc(N(C)S(C)(=O)=O)c([C@H]3CCCN(C(=O)c4cc5cccc(F)c5[nH]4)C3)cc12` [Example 31, (R)-5-(1-(7-fluoro-1H-indole-2-carbonyl)piperidin-3-yl)-2-(4-fluorophenyl)-N-methyl-6-(N-methylmethylsulfonamido)benzofuran-3-carboxamide], the IC50 was determined as 9.38 nM in test [1] (setting [3]) and 17.1 nM in test [2] (setting [4]).
The matching figures for `CNC(=O)c1c(-c2ccc(F)cc2)oc2cc(N(C)S(C)(=O)=O)c([C@@H]3CCCN(C(=O)c4cc5cccnc5[nH]4)C3)cc12` (stereo in doubt) [Example 66, 2-(4-fluorophenyl)-N-methyl-6-[methyl(methylsulfonyl)amino]-5-[1-(1H-pyrrolo[2,3-b]pyridin-2-ylcarbonyl)piperidin-3-yl]-1-benzofuran-3-carboxamide]: 21.2 nM and 92.6 nM.
In the same order, the values of `CNC(=O)c1c(-c2ccc(F)cc2)oc2cc(N(C)S(C)(=O)=O)c([C@H]3CN(c4nc5ccccc5o4)CCO3)cc12` (single isomer, unassigned) [Example 10, 5-(4-(benzo[d]oxazol-2-yl)morpholin-2-yl)-2-(4-fluorophenyl)-N-methyl-6-(N-methylmethylsulfonamido)benzofuran-3-carboxamide] are 26.6 nM and 16 nM.
The matching figures for `CNC(=O)c1c(-c2ccc(F)cc2)oc2cc(N(C)S(C)(=O)=O)c([C@@H]3CCCN(C(=O)CC4CCCCC4)C3)cc12` [Example 68, 5-[1-(cyclohexylacetyl)piperidin-3-yl]-2-(4-fluorophenyl)-N-methyl-6-[methyl(methylsulfonyl)amino]-1-benzofuran-3-carboxamide]: 89 nM and 98 nM.
